Assay results published in ChEMBL document CHEMBL5346923, “Novel pyridinium cationic pleuromutilin analogues overcoming bacterial multidrug resistance” (Eur J Med Chem, 2023).
Values after ≈ are worked out from the molar mass of the structure shown. Active and inactive are the calls of the source. The calls are words filed in the database; no cut-off is given here.

How the values were obtained:
Enterococcus = test: Antibacterial activity against vancomycin-resistant Enterococcus ATCC 700221 assessed as inhibition of bacterial growth measured after 24 hrs by MH broth based assay; format: functional
Bacillus subtilis = test: Antibacterial activity against Bacillus subtilis ATCC 6633 assessed as inhibition of bacterial growth measured after 24 hrs by MH broth based assay; format: functional
Staphylococcus aureus [1] = test: Antibacterial activity against Staphylococcus aureus ATCC 29213 assessed as inhibition of bacterial growth measured after 24 hrs by MH broth based assay; format: functional
Staphylococcus aureus [2] = test: Antibacterial activity against methicillin-resistant Staphylococcus aureus ATCC 43300 assessed as inhibition of bacterial growth measured after 24 hrs by MH broth based assay; format: functional
Streptococcus pneumoniae [3] = test: Antibacterial activity against Streptococcus pneumoniae ATCC 49619 assessed as inhibition of bacterial growth measured after 24 hrs by MH broth based assay; format: functional
[4] = tested on: Staphylococcus epidermidis; test: Antibacterial activity against methicillin-resistant Staphylococcus epidermidis ATCC 51625 assessed as inhibition of bacterial growth measured after 24 hrs by MH broth based assay; format: functional
Klebsiella pneumoniae [5] = test: Antibacterial activity against Klebsiella pneumonia CMCC (B) 46117 assessed as inhibition of bacterial growth measured after 24 hrs by MH broth based assay; format: functional
Escherichia coli [6] = test: Antibacterial activity against Escherichia coli ATCC 25922 assessed as inhibition of bacterial growth measured after 24 hrs by MH broth based assay; format: functional
Proteus = test: Antibacterial activity against Proteus CMCC (B) 49027 assessed as inhibition of bacterial growth measured after 24 hrs by MH broth based assay; format: functional
Staphylococcus aureus [7] = test: Antibacterial activity against clinical isolate Staphylococcus aureus harbouring IsaE gene assessed as inhibition of bacterial growth measured after 24 hrs by MH broth based assay; format: functional
Staphylococcus aureus [8] = test: Antibacterial activity against clinical isolate Staphylococcus aureus harbouring cfr gene assessed as inhibition of bacterial growth measured after 24 hrs by MH broth based assay; format: functional
Staphylococcus aureus [9] = test: Antibacterial activity against clinical isolate Staphylococcus aureus harbouring erm C gene assessed as inhibition of bacterial growth measured after 24 hrs by MH broth based assay; format: functional
Staphylococcus aureus [10] = test: Antibacterial activity against clinical isolate Staphylococcus aureus harbouring cfr and erm C gene assessed as inhibition of bacterial growth measured after 24 hrs by MH broth based assay; format: functional
Staphylococcus aureus [11] = test: Antibacterial activity against clinical isolate Staphylococcus aureus harbouring IsaA, cfr and erm A gene assessed as inhibition of bacterial growth measured after 24 hrs by MH broth based assay; format: functional
Staphylococcus aureus [12] = test: Antibacterial activity against clinical isolate Staphylococcus aureus harbouring tet38 gene assessed as inhibition of bacterial growth measured after 24 hrs by MH broth based assay; format: functional
Staphylococcus aureus [13] = test: Antibacterial activity against clinical isolate Staphylococcus aureus harbouring blaZ gene assessed as inhibition of bacterial growth measured after 24 hrs by MH broth based assay; format: functional
Staphylococcus aureus [14] = test: Antibacterial activity against clinical isolate Staphylococcus aureus harbouring ArlS, norA and MgrA gene assessed as inhibition of bacterial growth measured after 24 hrs by MH broth based assay; format: functional
Streptococcus pneumoniae [15] = test: Antibacterial activity against clinical isolate Streptococcus pneumoniae harbouring ermB gene assessed as inhibition of bacterial growth measured after 24 hrs by MH broth based assay; format: functional
Aerococcus viridans = test: Antibacterial activity against clinical isolate Aerococcus viridans harbouring optrA and ErmA gene assessed as inhibition of bacterial growth measured after 24 hrs by MH broth based assay; format: functional
Streptococcus suis = test: Antibacterial activity against clinical isolate Streptococcus suis harbouring IsaE and ErmA gene assessed as inhibition of bacterial growth measured after 24 hrs by MH broth based assay; format: functional
Streptococcus parasuis [16] = test: Antibacterial activity against clinical isolate Streptococcus parasuis harbouring InuD gene assessed as inhibition of bacterial growth measured after 24 hrs by MH broth based assay; format: functional
Streptococcus parasuis [17] = test: Antibacterial activity against clinical isolate Streptococcus parasuis harbouring optrA gene assessed as inhibition of bacterial growth measured after 24 hrs by MH broth based assay; format: functional
[18] = tested on: Streptococcus hyovaginalis; test: Antibacterial activity against clinical isolate Streptococcus hyovaginalis harbouring IsaE and optrA gene assessed as inhibition of bacterial growth measured after 24 hrs by MH broth based assay; format: functional
[19] = tested on: Streptococcus hyovaginalis; test: Antibacterial activity against clinical isolate Streptococcus hyovaginalis harbouring ErmB and tetO gene assessed as inhibition of bacterial growth measured after 24 hrs by MH broth based assay; format: functional
Enterococcus hirae = test: Antibacterial activity against clinical isolate Enterococcus hirae assessed as inhibition of bacterial growth measured after 24 hrs by MH broth based assay; format: functional
Enterococcus lactis = test: Antibacterial activity against clinical isolate Enterococcus lactis assessed as inhibition of bacterial growth measured after 24 hrs by MH broth based assay; format: functional
Escherichia coli [20] = test: Antibacterial activity against clinical isolate Escherichia coli harbouring NDM-17 gene assessed as inhibition of bacterial growth measured after 24 hrs by MH broth based assay; format: functional
Klebsiella pneumoniae [21] = test: Antibacterial activity against clinical isolate Klebsiella pneumoniae harbouring mcr-8 gene assessed as inhibition of bacterial growth measured after 24 hrs by MH broth based assay; format: functional
Klebsiella pneumoniae [22] = test: Antibacterial activity against clinical isolate Klebsiella pneumoniae harbouring blaKpc gene assessed as inhibition of bacterial growth measured after 24 hrs by MH broth based assay; format: functional
Escherichia coli [23] = test: Antibacterial activity against Escherichia coli MG1655 assessed as inhibition of bacterial growth measured after 24 hrs by MH broth based assay; format: functional
Escherichia coli [24] = test: Antibacterial activity against Escherichia coli MG1655 harbouring acrB gene assessed as inhibition of bacterial growth measured after 24 hrs by MH broth based assay; format: functional
Staphylococcus aureus [25] = test: Antibacterial activity against clinical isolate multi-drug resistant Staphylococcus aureus sal assessed as reduction in log10 CFU at 6 times of MIC measured after 8 hrs by time-kill assay; format: functional
Staphylococcus aureus [26] = test: Antibacterial activity against clinical isolate multi-drug resistant Staphylococcus aureus sal assessed as inhibition of bacterial growth; format: functional
Staphylococcus aureus [27] = test: Antibacterial activity against methicillin-resistant Staphylococcus aureus assessed as resistance development by measuring fold increase in MIC measured after 24 days; format: functional; conditions: time 24 day
Staphylococcus aureus [28] = test: Antibacterial activity against compound-resistant/methicillin-resistant Staphylococcus aureus assessed as inhibition of bacterial growth; format: functional
Staphylococcus aureus [29] = test: Antibacterial activity against tiamulin-resistant/methicillin-resistant Staphylococcus aureus assessed as inhibition of bacterial growth; format: functional
Staphylococcus aureus [30] = test: Antibacterial activity against Staphylococcus aureus ATCC 29213 assessed as inhibition of bacterial division at 1 to 4 times of MIC by SEM analysis; format: functional, organism-based
Staphylococcus aureus [31] = test: Antibacterial activity against multi-drug resistant Staphylococcus aureus sa1 infected in BABL/C mouse assessed as survival rate at 40 mg/kg, ip measured upto 7 days; format: functional; conditions: sa1, 168 h, time <= 7 day
Staphylococcus aureus [32] = test: Antibacterial activity against multi-drug resistant Staphylococcus aureus sa1 infected in ip dosed BABL/C mouse assessed as survival rate measured upto 7 days; format: functional; conditions: sa1, 168 h, time <= 7 day
Staphylococcus aureus [33] = test: Antibacterial activity against multi-drug resistant Staphylococcus aureus sa1 infected in BABL/C mouse assessed as reduction in bacterial load in lungs at 40 mg/kg, ip measured after 2 days; format: functional; conditions: time 2 day
Staphylococcus aureus [34] = test: Antibacterial activity against multi-drug resistant Staphylococcus aureus sa1 infected in BABL/C mouse assessed as reduction in bacterial load in lungs at 20 mg/kg, ip measured after 2 days; format: functional; conditions: time 2 day
Staphylococcus aureus [35] = test: Antibacterial activity against multi-drug resistant Staphylococcus aureus sa1 infected in BABL/C mouse assessed as appearance of alveolar septa thickening at 20 to 40 mg/kg, ip; format: functional, organism-based; conditions: dose 20-40 mg/kg
Staphylococcus aureus [36] = test: Antibacterial activity against multi-drug resistant Staphylococcus aureus sa1 infected in BABL/C mouse assessed as appearance of congested pulmonary capillaries at 20 mg/kg, ip; format: functional, organism-based
Staphylococcus aureus [37] = test: Antibacterial activity against multi-drug resistant Staphylococcus aureus sa1 infected in BABL/C mouse assessed as lymphocyte infiltration at 20 mg/kg, ip; format: functional, organism-based
Staphylococcus aureus [38] = test: Antibacterial activity against multi-drug resistant Staphylococcus aureus sa1 infected in BABL/C mouse assessed as neutrophil infiltration at 20 mg/kg, ip; format: functional, organism-based

C=C[C@]1(C)C[C@@H](OC(=O)CSCCN(CC)CC)[C@]2(C)[C@H](C)CC[C@]3(CCC(=O)[C@H]32)[C@@H](C)[C@@H]1O [TIAMULIN]
MIC (Enterococcus): 64 µg/mL (≈ 130 µM)
MIC (Bacillus subtilis): 64 µg/mL (≈ 130 µM)
MIC (Staphylococcus aureus [1]): 0.5 µg/mL (≈ 1.01 µM)
MIC (Staphylococcus aureus [2]): 0.5 µg/mL (≈ 1.01 µM)
MIC (Streptococcus pneumoniae [3]): 0.063 µg/mL (≈ 0.128 µM)
MIC [4]: 0.25 µg/mL (≈ 0.506 µM)
MIC (Klebsiella pneumoniae [5]): 16 µg/mL (≈ 32.4 µM)
MIC (Escherichia coli [6]): > 64 µg/mL
MIC (Proteus): > 64 µg/mL
MIC (Staphylococcus aureus [7]): 128 µg/mL (≈ 259 µM)
MIC (Staphylococcus aureus [8]): 128 µg/mL (≈ 259 µM)
MIC (Staphylococcus aureus [9]): 32 µg/mL (≈ 64.8 µM)
MIC (Staphylococcus aureus [10]): 128 µg/mL (≈ 259 µM)
MIC (Staphylococcus aureus [11]): 128 µg/mL (≈ 259 µM)
MIC (Staphylococcus aureus [12]): 0.25 µg/mL (≈ 0.506 µM)
MIC (Staphylococcus aureus [13]): 0.5 µg/mL (≈ 1.01 µM)
MIC (Staphylococcus aureus [14]): 0.5 µg/mL (≈ 1.01 µM)
MIC (Streptococcus pneumoniae [15]): 32 µg/mL (≈ 64.8 µM)
MIC (Aerococcus viridans): 32 µg/mL (≈ 64.8 µM)
MIC (Streptococcus suis): 64 µg/mL (≈ 130 µM)
MIC (Streptococcus parasuis [16]): 64 µg/mL (≈ 130 µM)
MIC (Streptococcus parasuis [17]): 64 µg/mL (≈ 130 µM)
MIC [18]: 64 µg/mL (≈ 130 µM)
MIC [19]: 64 µg/mL (≈ 130 µM)
MIC (Enterococcus hirae): 8 µg/mL (≈ 16.2 µM)
MIC (Enterococcus lactis): 128 µg/mL (≈ 259 µM)
MIC (Escherichia coli [20]): 64 µg/mL (≈ 130 µM)
MIC (Klebsiella pneumoniae [21]): 16 µg/mL (≈ 32.4 µM)
MIC (Klebsiella pneumoniae [22]): 32 µg/mL (≈ 64.8 µM)
MIC (Escherichia coli [23]): 64 µg/mL (≈ 130 µM)
MIC (Escherichia coli [24]): 2 µg/mL (≈ 4.05 µM)
Activity (Staphylococcus aureus [25]): Active
MIC (Staphylococcus aureus [26]): 128 µg/mL (≈ 259 µM)
fold change (FC) (Staphylococcus aureus [27]): 64
MIC (Staphylococcus aureus [28]): 1 µg/mL (≈ 2.03 µM)
MIC (Staphylococcus aureus [29]): 64 µg/mL (≈ 130 µM)
Activity (Staphylococcus aureus [30]): Active
survival at 40 mg/kg (Staphylococcus aureus [31]): 50%
ED50 (Staphylococcus aureus [32]): 47.5 mg/kg
Activity (Staphylococcus aureus [33]): 1.94 log10CFU/ml
Activity (Staphylococcus aureus [34]): 1.35 log10CFU/ml
Activity (Staphylococcus aureus [35]): Active
Activity (Staphylococcus aureus [36]): Active
Activity (Staphylococcus aureus [37]): Active
Activity (Staphylococcus aureus [38]): Active
